Legend:
[1] = target: T1, Progesterone receptor (Homo sapiens, UniProt P06401)
T1 sequence (P06401 whole entry): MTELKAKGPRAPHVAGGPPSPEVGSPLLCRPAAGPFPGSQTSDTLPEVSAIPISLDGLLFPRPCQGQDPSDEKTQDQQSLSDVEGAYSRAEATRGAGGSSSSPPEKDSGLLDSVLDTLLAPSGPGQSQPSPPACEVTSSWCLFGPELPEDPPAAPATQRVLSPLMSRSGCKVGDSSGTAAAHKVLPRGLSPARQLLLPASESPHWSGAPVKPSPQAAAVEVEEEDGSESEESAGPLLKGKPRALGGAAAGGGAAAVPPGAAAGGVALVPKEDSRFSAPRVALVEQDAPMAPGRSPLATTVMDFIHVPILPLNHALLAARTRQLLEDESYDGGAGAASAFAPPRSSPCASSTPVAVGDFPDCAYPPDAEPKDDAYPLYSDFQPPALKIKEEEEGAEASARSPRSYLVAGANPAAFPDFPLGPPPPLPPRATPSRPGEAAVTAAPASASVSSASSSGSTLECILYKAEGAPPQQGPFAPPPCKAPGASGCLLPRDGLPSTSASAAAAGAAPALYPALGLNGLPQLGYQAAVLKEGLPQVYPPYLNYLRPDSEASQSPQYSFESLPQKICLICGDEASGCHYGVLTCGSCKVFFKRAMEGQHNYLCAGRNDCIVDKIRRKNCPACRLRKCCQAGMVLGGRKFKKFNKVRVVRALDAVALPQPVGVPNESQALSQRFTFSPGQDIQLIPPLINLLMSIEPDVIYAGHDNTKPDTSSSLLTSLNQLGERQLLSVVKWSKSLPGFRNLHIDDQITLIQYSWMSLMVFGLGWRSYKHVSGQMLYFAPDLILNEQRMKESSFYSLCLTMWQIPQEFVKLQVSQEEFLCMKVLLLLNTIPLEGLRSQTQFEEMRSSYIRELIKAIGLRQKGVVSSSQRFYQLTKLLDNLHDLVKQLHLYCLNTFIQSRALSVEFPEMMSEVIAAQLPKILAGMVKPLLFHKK

[2] = target: Beta-2 adrenergic receptor (Homo sapiens, UniProt P07550); type: functional, cell-based
Chain of Beta-2 adrenergic receptor (P07550 whole entry): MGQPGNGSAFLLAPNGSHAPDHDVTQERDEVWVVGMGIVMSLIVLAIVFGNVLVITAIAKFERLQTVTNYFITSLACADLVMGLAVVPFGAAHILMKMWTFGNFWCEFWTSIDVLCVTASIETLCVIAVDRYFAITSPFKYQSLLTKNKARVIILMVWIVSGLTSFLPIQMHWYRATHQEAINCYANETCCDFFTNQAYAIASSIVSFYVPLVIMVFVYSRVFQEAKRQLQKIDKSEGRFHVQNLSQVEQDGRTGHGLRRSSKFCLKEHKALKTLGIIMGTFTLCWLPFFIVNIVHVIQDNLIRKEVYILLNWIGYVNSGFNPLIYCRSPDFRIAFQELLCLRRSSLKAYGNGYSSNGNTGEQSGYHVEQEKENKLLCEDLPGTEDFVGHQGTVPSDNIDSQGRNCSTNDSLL

[3] = target: T2, Alpha-2A adrenergic receptor (Homo sapiens, UniProt P08913)
T2 sequence (P08913 whole entry): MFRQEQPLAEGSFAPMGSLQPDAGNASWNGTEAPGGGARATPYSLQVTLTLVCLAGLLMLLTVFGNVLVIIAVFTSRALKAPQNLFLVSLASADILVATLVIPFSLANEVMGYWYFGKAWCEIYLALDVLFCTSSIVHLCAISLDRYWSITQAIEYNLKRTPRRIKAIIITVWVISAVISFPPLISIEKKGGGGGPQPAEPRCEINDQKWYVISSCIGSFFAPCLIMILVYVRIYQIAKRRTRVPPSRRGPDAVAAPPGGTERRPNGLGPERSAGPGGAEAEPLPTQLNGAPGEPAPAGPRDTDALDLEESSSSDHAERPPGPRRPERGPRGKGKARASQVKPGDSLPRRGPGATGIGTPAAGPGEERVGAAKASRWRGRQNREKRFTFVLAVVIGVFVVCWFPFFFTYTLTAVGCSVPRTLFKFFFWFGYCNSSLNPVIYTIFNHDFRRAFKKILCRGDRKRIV

[4] = target: D(1A) dopamine receptor (Homo sapiens, UniProt P21728)
Chain of D(1A) dopamine receptor (P21728 whole entry): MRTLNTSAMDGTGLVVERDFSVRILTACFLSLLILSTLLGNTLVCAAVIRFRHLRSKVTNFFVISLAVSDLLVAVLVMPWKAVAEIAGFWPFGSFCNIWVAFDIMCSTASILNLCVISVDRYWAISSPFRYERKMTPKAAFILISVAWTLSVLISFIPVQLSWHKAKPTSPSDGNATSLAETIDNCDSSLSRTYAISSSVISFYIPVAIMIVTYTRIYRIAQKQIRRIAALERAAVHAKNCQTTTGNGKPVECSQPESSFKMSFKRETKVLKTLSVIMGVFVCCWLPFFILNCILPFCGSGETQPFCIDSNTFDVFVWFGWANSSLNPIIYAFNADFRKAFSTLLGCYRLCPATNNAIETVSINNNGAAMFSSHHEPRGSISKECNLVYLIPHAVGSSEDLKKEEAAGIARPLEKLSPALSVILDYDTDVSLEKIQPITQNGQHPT

[5] = target: Glucagon receptor (Homo sapiens, UniProt P47871)
Chain of Glucagon receptor (P47871 whole entry): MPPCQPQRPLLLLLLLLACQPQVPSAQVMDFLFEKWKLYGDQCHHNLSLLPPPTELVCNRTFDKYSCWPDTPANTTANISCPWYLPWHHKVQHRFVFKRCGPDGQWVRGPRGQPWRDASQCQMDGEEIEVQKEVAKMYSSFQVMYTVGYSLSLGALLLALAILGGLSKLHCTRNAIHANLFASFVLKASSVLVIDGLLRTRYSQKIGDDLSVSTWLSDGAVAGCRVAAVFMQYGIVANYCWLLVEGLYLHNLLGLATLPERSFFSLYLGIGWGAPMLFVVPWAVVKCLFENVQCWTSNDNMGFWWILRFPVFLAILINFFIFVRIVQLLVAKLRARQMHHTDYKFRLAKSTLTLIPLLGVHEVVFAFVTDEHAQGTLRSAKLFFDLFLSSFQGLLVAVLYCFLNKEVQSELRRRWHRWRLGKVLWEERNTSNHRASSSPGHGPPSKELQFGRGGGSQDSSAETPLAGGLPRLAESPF

[6] = target: 5-hydroxytryptamine receptor 2B (Homo sapiens, UniProt P41595)
Chain of 5-hydroxytryptamine receptor 2B (P41595 whole entry): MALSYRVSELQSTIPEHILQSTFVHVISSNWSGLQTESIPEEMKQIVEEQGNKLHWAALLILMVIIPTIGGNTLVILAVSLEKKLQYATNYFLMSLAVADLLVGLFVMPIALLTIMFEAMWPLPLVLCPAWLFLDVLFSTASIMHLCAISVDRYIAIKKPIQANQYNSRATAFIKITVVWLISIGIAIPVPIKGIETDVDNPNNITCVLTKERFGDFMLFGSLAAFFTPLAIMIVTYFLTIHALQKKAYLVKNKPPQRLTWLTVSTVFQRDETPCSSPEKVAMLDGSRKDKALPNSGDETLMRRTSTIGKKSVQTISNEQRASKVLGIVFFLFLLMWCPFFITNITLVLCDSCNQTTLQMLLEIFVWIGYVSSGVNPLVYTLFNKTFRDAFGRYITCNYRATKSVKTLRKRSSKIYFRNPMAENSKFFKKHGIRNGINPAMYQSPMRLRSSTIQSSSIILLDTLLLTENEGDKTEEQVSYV

[7] = target: 5-hydroxytryptamine receptor 7 (Homo sapiens, UniProt P34969)
Chain of 5-hydroxytryptamine receptor 7 (P34969 whole entry): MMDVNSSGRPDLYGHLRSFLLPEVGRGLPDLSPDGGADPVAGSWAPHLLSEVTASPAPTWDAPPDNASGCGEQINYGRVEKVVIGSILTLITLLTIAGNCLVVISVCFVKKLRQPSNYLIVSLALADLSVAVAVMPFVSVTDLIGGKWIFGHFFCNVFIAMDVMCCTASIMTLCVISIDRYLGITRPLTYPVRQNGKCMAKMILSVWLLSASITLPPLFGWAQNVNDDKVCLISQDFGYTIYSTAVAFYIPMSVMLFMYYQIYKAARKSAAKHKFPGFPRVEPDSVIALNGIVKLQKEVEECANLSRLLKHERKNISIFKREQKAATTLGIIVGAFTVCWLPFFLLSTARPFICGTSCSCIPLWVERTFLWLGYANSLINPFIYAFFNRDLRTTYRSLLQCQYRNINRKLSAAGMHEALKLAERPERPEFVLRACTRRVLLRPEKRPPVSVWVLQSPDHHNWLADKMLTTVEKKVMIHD

[8] = target: T3, 5-hydroxytryptamine receptor 1A (Homo sapiens, UniProt P08908)
T3 sequence (P08908 whole entry): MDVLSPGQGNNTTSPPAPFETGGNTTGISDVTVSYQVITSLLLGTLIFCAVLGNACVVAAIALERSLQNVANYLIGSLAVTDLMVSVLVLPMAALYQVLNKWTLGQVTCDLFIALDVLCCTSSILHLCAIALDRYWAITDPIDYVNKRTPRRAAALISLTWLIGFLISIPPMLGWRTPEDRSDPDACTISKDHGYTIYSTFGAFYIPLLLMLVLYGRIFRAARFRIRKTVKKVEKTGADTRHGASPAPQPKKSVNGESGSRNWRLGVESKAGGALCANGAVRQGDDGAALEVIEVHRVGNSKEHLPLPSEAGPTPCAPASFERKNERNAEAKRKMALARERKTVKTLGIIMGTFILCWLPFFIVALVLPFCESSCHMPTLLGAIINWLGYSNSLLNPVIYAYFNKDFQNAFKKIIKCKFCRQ

[9] = target: 5-hydroxytryptamine receptor 2A (Homo sapiens, UniProt P28223)
Chain of 5-hydroxytryptamine receptor 2A (P28223 whole entry): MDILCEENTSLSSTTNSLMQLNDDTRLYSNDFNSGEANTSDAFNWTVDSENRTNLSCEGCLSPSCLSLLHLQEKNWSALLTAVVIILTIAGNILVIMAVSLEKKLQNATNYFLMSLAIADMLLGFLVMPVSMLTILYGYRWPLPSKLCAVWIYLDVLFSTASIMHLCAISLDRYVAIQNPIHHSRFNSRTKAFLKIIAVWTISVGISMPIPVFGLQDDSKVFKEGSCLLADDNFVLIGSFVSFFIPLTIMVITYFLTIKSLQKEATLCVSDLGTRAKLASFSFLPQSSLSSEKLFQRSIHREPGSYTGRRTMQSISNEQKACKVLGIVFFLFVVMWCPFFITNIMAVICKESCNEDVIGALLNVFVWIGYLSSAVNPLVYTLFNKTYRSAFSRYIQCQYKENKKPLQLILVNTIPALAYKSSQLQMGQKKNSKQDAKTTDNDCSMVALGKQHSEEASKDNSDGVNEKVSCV

[10] = target: T4, Peroxisome proliferator-activated receptor gamma (Homo sapiens, UniProt P37231); type: functional
T4 sequence (P37231 whole entry): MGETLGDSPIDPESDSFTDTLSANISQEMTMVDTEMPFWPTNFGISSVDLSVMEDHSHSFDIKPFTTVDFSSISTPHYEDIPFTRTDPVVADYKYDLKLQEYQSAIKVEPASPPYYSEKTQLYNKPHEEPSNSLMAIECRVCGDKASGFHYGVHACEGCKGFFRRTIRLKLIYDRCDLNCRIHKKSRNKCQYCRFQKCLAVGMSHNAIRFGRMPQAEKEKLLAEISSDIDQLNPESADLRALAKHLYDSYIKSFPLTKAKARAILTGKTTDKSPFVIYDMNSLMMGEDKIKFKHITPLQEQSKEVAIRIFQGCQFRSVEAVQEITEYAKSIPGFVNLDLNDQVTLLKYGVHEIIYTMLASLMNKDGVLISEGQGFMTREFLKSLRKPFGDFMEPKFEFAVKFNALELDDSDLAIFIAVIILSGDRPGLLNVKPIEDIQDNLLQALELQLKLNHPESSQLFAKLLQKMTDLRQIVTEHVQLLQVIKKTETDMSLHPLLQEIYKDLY

[11] = target: T5, Histamine H1 receptor (Homo sapiens, UniProt P35367); type: functional, cell-based
T5 sequence (P35367 whole entry): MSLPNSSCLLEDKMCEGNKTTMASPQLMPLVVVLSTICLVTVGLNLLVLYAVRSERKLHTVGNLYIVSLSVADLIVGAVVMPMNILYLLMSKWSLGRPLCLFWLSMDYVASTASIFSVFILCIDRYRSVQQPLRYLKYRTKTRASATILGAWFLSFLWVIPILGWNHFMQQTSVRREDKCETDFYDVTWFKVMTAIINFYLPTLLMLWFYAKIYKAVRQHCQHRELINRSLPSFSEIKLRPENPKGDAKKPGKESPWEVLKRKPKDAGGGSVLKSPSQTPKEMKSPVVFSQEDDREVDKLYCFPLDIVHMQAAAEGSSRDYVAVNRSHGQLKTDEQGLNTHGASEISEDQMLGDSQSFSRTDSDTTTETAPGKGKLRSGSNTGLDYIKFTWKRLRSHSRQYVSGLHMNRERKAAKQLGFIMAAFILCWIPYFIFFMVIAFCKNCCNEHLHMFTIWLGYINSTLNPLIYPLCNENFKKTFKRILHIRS

[12] = target: T5, Histamine H1 receptor; type: functional, cell-based; remark: listed apart in the source
Further: assay procedure not described here.

Structure (SMILES): CNS(=O)(=O)Cc1ccc2[nH]cc(CCN(C)C)c2c1
- AC50 [1]: > 30 µM
- AC50 [2]: > 30 µM
- AC50 [3]: > 10 µM
- AC50 [4]: > 10 µM
- AC50 [5]: > 30 µM
- AC50 [6]: 14 µM
- AC50 [7]: 4.67 µM

Structure (SMILES): COc1ccccc1N1CCN(CCCNc2cc(=O)n(C)c(=O)n2C)CC1
- AC50 [8]: 0.492 µM

Structure (SMILES): CC(=O)O[C@H]1CC[C@@]2(C)C(=CC[C@@H]3[C@@H]2CC[C@]2(C)C(c4cccnc4)=CC[C@@H]32)C1 [ABIRATERONE ACETATE]
- AC50 [1]: 3.1 µM
- AC50 [2]: > 30 µM
- AC50 [8]: > 10 µM
- AC50 [9]: > 10 µM
- AC50 [10]: > 30 µM

Structure (SMILES): NCC(=O)CCC(=O)O [AMINOLEVULINIC ACID]
- AC50 [2]: > 30 µM
- AC50 [11]: > 30 µM
- AC50 [12]: > 30 µM

Structure (SMILES): COc1ccccc1OCCNCC(O)c1ccc(C)c(S(N)(=O)=O)c1 (configuration not stated) [AMOSULALOL]
- AC50 [8]: 0.052 µM
- AC50 [6]: > 30 µM

Structure (SMILES): CO/N=C(\C(=O)N[C@@H]1C(=O)N2C(C(=O)O)=C(CSc3nnnn3C)CS[C@H]12)c1csc(N)n1 [CEFMENOXIME]
- AC50 [2]: > 30 µM
- AC50 [10]: > 30 µM

Structure (SMILES): CCN1CCN(C(=O)N[C@@H](C(=O)N[C@@H]2C(=O)N3C(C(=O)O)=C(CSc4nnnn4C)CS[C@H]23)c2ccc(O)cc2)C(=O)C1=O [CEFOPERAZONE]
- AC50 [2]: > 30 µM
- AC50 [10]: > 30 µM

Structure (SMILES): COc1ccc2c3c1O[C@H]1[C@@H](O)C=C[C@H]4[C@@H](C2)N(C)CC[C@@]341 [CODEINE]
- AC50 [1]: > 30 µM
- AC50 [8]: > 10 µM
- AC50 [3]: > 10 µM
- AC50 [9]: > 10 µM
- AC50 [4]: > 10 µM
- AC50 [5]: > 30 µM
- AC50 [6]: > 10 µM
- AC50 [7]: > 10 µM

Structure (SMILES): C#C[C@]1(O)CC[C@H]2[C@@H]3CCC4=Cc5oncc5C[C@]4(C)[C@H]3CC[C@@]21C [DANAZOL]
- AC50 [2]: > 30 µM

Structure (SMILES): CC1(C)O[C@@H]2C[C@H]3[C@@H]4CCC5=CC(=O)C=C[C@]5(C)[C@H]4[C@@H](O)C[C@]3(C)[C@]2(C(=O)CO)O1 [DESONIDE]
- AC50 [2]: > 30 µM

Structure (SMILES): Cn1c(=O)c2c(ncn2CC2OCCO2)n(C)c1=O [DOXOFYLLINE]
- AC50 [2]: > 30 µM

Structure (SMILES): CCCCCCOc1ccccc1C(N)=O [EXALAMIDE]
- AC50 [6]: 0.27 µM

Structure (SMILES): CCc1c(Cl)c(O)c(Cl)c(O)c1C(=O)O[C@H]1[C@H](O)[C@H](OC)[C@H](OC/C2=C\C=C\C[C@H](O)/C(C)=C/[C@H](CC)[C@@H](O[C@@H]3OC(C)(C)[C@@H](OC(=O)C(C)C)[C@H](O)[C@@H]3O)/C(C)=C/C(C)=C/C[C@@H]([C@@H](C)O)OC2=O)O[C@@H]1C [FIDAXOMICIN]
- AC50 [1]: 11.3 µM
- AC50 [8]: > 10 µM
- AC50 [3]: > 10 µM
- AC50 [9]: > 10 µM
- AC50 [4]: > 10 µM
- AC50 [5]: > 30 µM
- AC50 [6]: > 10 µM

Structure (SMILES): COc1ccc(CCN(C)CCCC(C#N)(c2cc(OC)c(OC)c(OC)c2)C(C)C)cc1OC (configuration not stated) [GALLOPAMIL]
- AC50 [2]: > 30 µM
- AC50 [6]: 0.0819 µM

Structure (SMILES): CC(C)C(=O)c1c(C(C)C)nn2ccccc12 [IBUDILAST]
- AC50 [2]: > 30 µM

Structure (SMILES): CC(C)Cn1cnc2c(N)nc3ccccc3c21 [IMIQUIMOD]
- AC50 [1]: > 30 µM
- AC50 [8]: > 10 µM

Structure (SMILES): CCC(C(=O)O)c1ccc(N2Cc3ccccc3C2=O)cc1 (configuration not stated) [INDOBUFEN]
- AC50 [2]: > 30 µM

— ChEMBL document CHEMBL5291721, “A preclinical secondary pharmacology resource illuminates target-adverse drug reaction associations of marketed drugs” (Nat Commun, 2023)
